Experiment: Chemical stability on storage (chemical purity by HPLC)
Format: physicochemical
Settings: for reduction in chemical purity by HPLC (area %): following 1 week of storage at 40° C. and 75% relative humidity (40° C./75% RH)

| Structure (SMILES) | reduction in chemical purity by HPLC (area %) | chemical stability compared to other known forms of dexlansoprazole such as the amorphous form (qualitative statement, storage conditions not given) |
| --- | --- | --- |
| Cc1c(OCC(F)(F)F)ccnc1C[S@@+]([O-])c1nc2ccccc2[nH]1 [amorphous form, (R)-2-[[[3-methyl-4-(2,2,2-trifluoroethoxy)-2-pyridinyl]methyl]sulfinyl]-1H-benzimidazole, reference compound] | 8.5 area % | – |
| CC(O)CO.Cc1c(OCC(F)(F)F)ccnc1C[S@@+]([O-])c1nc2ccccc2[nH]1.O | essentially unchanged | – |
| Cc1c(OCC(F)(F)F)ccnc1C[S@@+]([O-])c1nc2ccccc2[nH]1 | – | increased chemical stability |
